{"source": "ChEMBL document CHEMBL5154737", "about": "“Semisynthesis and biological evaluation of (+)-sclerotiorin derivatives as antitumor agents for the treatment of hepatocellular carcinoma” (Eur J Med Chem, 2022)", "key": {"Bel-7402 [1]": {"tested_on": "Bel-7402", "test": "Antitumor activity against human Bel-7402 cells xenografted in BALB/c nude mouse assessed as tumor growth inhibition at 20 mg/kg, ip bid for 14 days measured every 2 days relative to control", "type": "functional", "conditions": "Bel-7402, 336 h, time 14 day, read-out: TGI"}, "[2]": {"test": "Cytotoxicity against human HepG2 cells assessed as reduction in cell viability incubated for 72 hrs by MTT assay", "type": "toxicity, cell-based"}, "Bel-7402 [3]": {"tested_on": "Bel-7402", "test": "Induction of AKT degradation in human Bel-7402 cells at 2.5 uM incubated for 24 hrs in presence of chloroquine by Western blot analysis", "type": "cell-based"}, "[4]": {"test": "Biodistribution in liver of mouse bearing tumor measured after 24 hr by ICG dye based fluorescence imaging", "type": "ADME, organism-based", "conditions": "in vivo"}, "Bel-7402 [5]": {"tested_on": "Bel-7402", "test": "Cytotoxicity against human Bel-7402 cells assessed as increase LDH release at 2.5 to 5 uM by LDH assay", "type": "functional, cell-based", "conditions": "dose 2.5-5 µM, time 24-48 hrs, TDE = time-dependent effect"}, "[6]": {"test": "Sub-chronic toxicity in ICR mouse assessed as body weight change at 100 mg/kg/day, ip for 26 days", "type": "organism-based", "conditions": "in vivo, 624 h, time 26 day"}, "[7]": {"test": "Toxicity in ICR mouse assessed as change in lymphocyte level at 100 mg/kg, ip qd (reference value: 75.2 %)", "type": "organism-based", "conditions": "in vivo"}, "Bel-7402 [8]": {"tested_on": "Bel-7402", "test": "Induction of apoptosis in human Bel-7402 cells assessed as dead cells at 0.625 uM incubated for 24 hrs by Annexin V and dead cell assay kit (reference value: 0.80 %)", "type": "functional"}, "Bel-7402 [9]": {"tested_on": "Bel-7402", "test": "Induction of apoptosis in human Bel-7402 cells assessed as viable cells at 0.313 uM incubated for 24 hrs by Annexin V and dead cell assay kit (reference value: 91.00%)", "type": "functional", "conditions": "read-out: Activity"}, "Bel-7402 [10]": {"tested_on": "Bel-7402", "test": "Induction of apoptosis in human Bel-7402 cells assessed as late apoptotic cells at 2.5 uM incubated for 24 hrs by Annexin V and dead cell assay kit (reference value: 4.45 %)", "type": "functional"}, "Bel-7402 [11]": {"tested_on": "Bel-7402", "test": "Antitumor activity against human Bel-7402 cells xenografted in BALB/c nude mouse assessed as tumor growth inhibition at 10 mg/kg, ip bid measured every 2 days for 14 days relative to control", "type": "functional", "conditions": "Bel-7402, 336 h, time 14 day, read-out: TGI"}, "[12]": {"test": "Toxicity in BALB/c nude mouse xenografted with human Bel-7402 cells assessed as change in body weight at 10 to 20 mg/kg, ip bid measured every 2 days for 14 days", "type": "organism-based", "conditions": "in vivo, 336 h, dose 10-20 mg/kg, time 14 day"}, "Bel-7402 [13]": {"tested_on": "Bel-7402", "test": "Induction of apoptosis in human Bel-7402 cells assessed as late apoptotic cells at 5 uM incubated for 24 hrs by Annexin V and dead cell assay kit (reference value: 4.45 %)", "type": "functional"}, "Bel-7402 [14]": {"tested_on": "Bel-7402", "test": "Induction of apoptosis in human Bel-7402 cells assessed as early apoptotic cells at 0.313 uM incubated for 24 hrs by Annexin V and dead cell assay kit (reference value: 3.75 %)", "type": "functional"}, "Bel-7402 [15]": {"tested_on": "Bel-7402", "test": "Upregulation of total protein ubiquitination level in human Bel-7402 cells at 2.5 uM by Western blot analysis", "type": "functional, cell-based", "conditions": "time <= 12.0 hrs, TDE = time-dependent effect"}, "Bel-7402 [16]": {"tested_on": "Bel-7402", "test": "Induction of apoptosis in human Bel-7402 cells assessed as early apoptotic cells at 2.5 uM incubated for 24 hrs by Annexin V and Dead cell kit assay (reference value: 3.7 %)", "type": "functional"}, "[17]": {"test": "Drug uptake in tumor of mouse bearing tumor measured after 24 hr by ICG dye based fluorescence imaging", "type": "ADME, tissue-based, Neoplasm", "conditions": "in vivo"}, "Bel-7402 [18]": {"tested_on": "Bel-7402", "test": "Induction of apoptosis in human Bel-7402 cells assessed as viable cells at 1.25 uM incubated for 24 hrs by Annexin V and dead cell assay kit (reference value: 91.00%)", "type": "functional", "conditions": "read-out: Activity"}, "Bel-7402 [19]": {"tested_on": "Bel-7402", "test": "Disruption of mitochondrial membrane potential in human Bel-7402 cells incubated for 24 hrs by Rho-123 staining based flow cytometry analysis", "type": "functional, cell-based", "conditions": "dose <= 5.0 µM, DDE = dose-dependent effect"}, "[20]": {"test": "MRT (0 to t) in Sprague-Dawley rat at 20 mg/kg, ip measured for 0.03 to 24 hrs by UPLC-MS analysis", "type": "ADME, organism-based", "conditions": "in vivo, time 0.03-24 hrs"}, "Bel-7402 [21]": {"tested_on": "Bel-7402", "test": "Cytotoxicity against human Bel-7402 cells assessed as inhibition rate at 5 uM incubated for 72 hrs by MTT assay relative to control", "type": "functional", "set-up": "scale not given: the % may be the effect or the level left"}, "Bel-7402 [22]": {"tested_on": "Bel-7402", "test": "Induction of apoptosis in human Bel-7402 cells assessed as necrotic cells at 2.5 uM incubated for 24 hrs by Annexin V and Dead cell kit assay (reference value: 1.6 %)", "type": "functional"}, "Bel-7402 [23]": {"tested_on": "Bel-7402", "test": "Induction of apoptosis in human Bel-7402 cells assessed as dead cells at 1.25 uM incubated for 24 hrs by Annexin V and dead cell assay kit (reference value: 0.80 %)", "type": "functional"}, "Bel-7402 [24]": {"tested_on": "Bel-7402", "test": "Antitumor activity against human Bel-7402 cells xenografted in BALB/c nude mouse assessed as tumor growth inhibition at 20 mg/kg, ip qd measured every 2 days for 14 days relative to control", "type": "functional", "conditions": "Bel-7402, 336 h, time 14 day, read-out: TGI"}, "[25]": {"test": "Chronic toxicity in ICR mouse assessed as effect on heart morphology at 100 mg/kg, ip qd measured after 26 days by H and E staining method", "type": "organism-based", "conditions": "in vivo, 624 h, time 26 day"}, "[26]": {"test": "Toxicity in ICR mouse assessed as change in mean corpuscular volume at 100 mg/kg, ip qd (reference value: 51.3 fL)", "type": "organism-based", "conditions": "in vivo"}, "Bel-7402 [27]": {"tested_on": "Bel-7402", "test": "Induction of apoptosis in human Bel-7402 cells assessed as increase in cleaved caspase-3 upto 2.5 uM incubated for 24 hrs by Western blot analysis", "type": "functional, cell-based"}, "[28]": {"test": "Toxicity in ICR mouse assessed as change in red blood cell volume distribution width at 100 mg/kg, ip qd (reference value: 16.6 %)", "type": "organism-based", "conditions": "in vivo"}, "[29]": {"test": "Biodistribution in whole body of mouse bearing tumor measured after 1 hr by ICG dye based fluorescence imaging", "type": "ADME, organism-based", "conditions": "in vivo"}, "Bel-7402 [30]": {"tested_on": "Bel-7402", "test": "Induction of caspase dependent apoptosis in human Bel-7402 cells assessed as reduction in cell proliferation inhibition upto 10 uM incubated for 24 hrs in presence of Z-vad-fmk by MTT assay", "type": "functional, cell-based"}, "[31]": {"test": "AUC (0 to t) in Sprague-Dawley rat at 20 mg/kg, ip measured for 0.03 to 24 hrs by UPLC-MS analysis", "type": "ADME, organism-based", "set-up": "time lower 0.03 hrs, dose 20 mg/kg, time upper 24 hrs, route ip", "conditions": "in vivo"}, "Bel-7402 [32]": {"tested_on": "Bel-7402", "test": "Induction of apoptosis in human Bel-7402 cells assessed as early apoptotic cells at 1.25 uM incubated for 24 hrs by Annexin V and dead cell assay kit (reference value: 3.75 %)", "type": "functional"}, "Bel-7402 [33]": {"tested_on": "Bel-7402", "test": "Induction of apoptosis in human Bel-7402 cells assessed as necrotic cells at 2.5 uM incubated for 24 hrs in presence of U0126 by Annexin V and Dead cell kit assay (reference value: 1.6 %)", "type": "functional"}, "[34]": {"test": "Toxicity in ICR mouse assessed as change in neutrophile granulocytes level at 100 mg/kg, ip qd (reference value: 0.9 10^9/L)", "type": "organism-based", "conditions": "in vivo"}, "[35]": {"test": "Toxicity in ICR mouse assessed as change in platelet distribution width at 100 mg/kg, ip qd (reference value: 16.7)", "type": "organism-based", "conditions": "in vivo"}, "Bel-7402 [36]": {"tested_on": "Bel-7402", "test": "Induction of apoptosis in human Bel-7402 cells assessed as early apoptotic cells at 5 uM incubated for 24 hrs by Annexin V and dead cell assay kit (reference value: 3.75 %)", "type": "functional"}, "Bel-7402 [37]": {"tested_on": "Bel-7402", "test": "Induction of apoptosis in human Bel-7402 cells assessed as increase in cleaved PARP upto 2.5 uM incubated for 24 hrs by Western blot analysis", "type": "functional, cell-based"}}, "note": "The source made the active and inactive calls. The calls are words filed in the database; no cut-off is given here.", "data": [{"smiles": "CC[C@H](C)/C=C(C)/C=C/C1=CC2=C(Cl)C(=O)[C@](C)(O)C(=O)C2=CN1Cc1ccc(OC(F)(F)F)cc1", "values": [{"measurement": "inhibition in vivo at 20 mg/kg", "setting": "Bel-7402 [1]", "result": 52.5, "unit": "%"}, {"measurement": "IC50 at 72 h", "setting": "[2]", "result": 2.82, "unit": "µM"}, {"measurement": "Activity", "setting": "Bel-7402 [3]", "result": "Active"}, {"measurement": "Activity", "setting": "[4]", "result": "Active"}, {"measurement": "Activity", "setting": "Bel-7402 [5]", "result": "Tde"}, {"measurement": "Activity", "setting": "[6]", "result": "Non-Toxic"}, {"measurement": "Activity", "setting": "[7]", "result": 50.3, "unit": "%"}, {"measurement": "Activity", "setting": "Bel-7402 [8]", "result": 0.6, "unit": "%"}, {"measurement": "viability at 0.313 µM", "setting": "Bel-7402 [9]", "result": 94.3, "unit": "%"}, {"measurement": "Activity", "setting": "Bel-7402 [10]", "result": 35.25, "unit": "%"}, {"measurement": "inhibition in vivo at 10 mg/kg", "setting": "Bel-7402 [11]", "result": 34.6, "unit": "%"}, {"measurement": "Activity", "setting": "[12]", "result": "Non-Toxic"}, {"measurement": "Activity", "setting": "Bel-7402 [13]", "result": 75.55, "unit": "%"}, {"measurement": "Activity", "setting": "Bel-7402 [14]", "result": 3.75, "unit": "%"}, {"measurement": "Activity", "setting": "Bel-7402 [15]", "result": "Tde"}, {"measurement": "Activity", "setting": "Bel-7402 [16]", "result": 25.8, "unit": "%"}, {"measurement": "Drug uptake", "setting": "[17]", "result": "Active"}, {"measurement": "viability at 1.25 µM", "setting": "Bel-7402 [18]", "result": 88.4, "unit": "%"}, {"measurement": "Activity", "setting": "Bel-7402 [19]", "result": "Dde"}, {"measurement": "MRT last", "setting": "[20]", "result": 4.46, "unit": "h"}, {"measurement": "Activity", "setting": "Bel-7402 [21]", "result": 90.13, "unit": "%"}, {"measurement": "Activity", "setting": "Bel-7402 [22]", "result": 11.15, "unit": "%"}, {"measurement": "Activity", "setting": "Bel-7402 [23]", "result": 0.75, "unit": "%"}, {"measurement": "inhibition in vivo at 20 mg/kg", "setting": "Bel-7402 [24]", "result": 18.3, "unit": "%"}, {"measurement": "Activity", "setting": "[25]", "result": "Non-Toxic"}, {"measurement": "Activity", "setting": "[26]", "result": 55, "unit": "fL"}, {"measurement": "Activity", "setting": "Bel-7402 [27]", "result": "Active"}, {"measurement": "Activity", "setting": "[28]", "result": 13.5, "unit": "%"}, {"measurement": "Activity", "setting": "[29]", "result": "Active"}, {"measurement": "Activity", "setting": "Bel-7402 [30]", "result": "Active"}, {"measurement": "AUC(0-t)", "setting": "[31]", "result": 29700, "unit": "ng·h/mL"}, {"measurement": "Activity", "setting": "Bel-7402 [32]", "result": 5.1, "unit": "%"}, {"measurement": "Activity", "setting": "Bel-7402 [33]", "result": 7.75, "unit": "%"}, {"measurement": "Activity", "setting": "[34]", "result": "1.4 10^9/L"}, {"measurement": "Activity", "setting": "[35]", "result": 18.3}, {"measurement": "Activity", "setting": "Bel-7402 [36]", "result": 8.1, "unit": "%"}, {"measurement": "Activity", "setting": "Bel-7402 [37]", "result": "Active"}]}]}
